# Molecular target: T1, human TLR7 (hTLR7) (Homo sapiens, UniProt Q9NYK1)
# T1 construct: expressed in transfected cells
# T1 sequence (Q9NYK1 27-1049): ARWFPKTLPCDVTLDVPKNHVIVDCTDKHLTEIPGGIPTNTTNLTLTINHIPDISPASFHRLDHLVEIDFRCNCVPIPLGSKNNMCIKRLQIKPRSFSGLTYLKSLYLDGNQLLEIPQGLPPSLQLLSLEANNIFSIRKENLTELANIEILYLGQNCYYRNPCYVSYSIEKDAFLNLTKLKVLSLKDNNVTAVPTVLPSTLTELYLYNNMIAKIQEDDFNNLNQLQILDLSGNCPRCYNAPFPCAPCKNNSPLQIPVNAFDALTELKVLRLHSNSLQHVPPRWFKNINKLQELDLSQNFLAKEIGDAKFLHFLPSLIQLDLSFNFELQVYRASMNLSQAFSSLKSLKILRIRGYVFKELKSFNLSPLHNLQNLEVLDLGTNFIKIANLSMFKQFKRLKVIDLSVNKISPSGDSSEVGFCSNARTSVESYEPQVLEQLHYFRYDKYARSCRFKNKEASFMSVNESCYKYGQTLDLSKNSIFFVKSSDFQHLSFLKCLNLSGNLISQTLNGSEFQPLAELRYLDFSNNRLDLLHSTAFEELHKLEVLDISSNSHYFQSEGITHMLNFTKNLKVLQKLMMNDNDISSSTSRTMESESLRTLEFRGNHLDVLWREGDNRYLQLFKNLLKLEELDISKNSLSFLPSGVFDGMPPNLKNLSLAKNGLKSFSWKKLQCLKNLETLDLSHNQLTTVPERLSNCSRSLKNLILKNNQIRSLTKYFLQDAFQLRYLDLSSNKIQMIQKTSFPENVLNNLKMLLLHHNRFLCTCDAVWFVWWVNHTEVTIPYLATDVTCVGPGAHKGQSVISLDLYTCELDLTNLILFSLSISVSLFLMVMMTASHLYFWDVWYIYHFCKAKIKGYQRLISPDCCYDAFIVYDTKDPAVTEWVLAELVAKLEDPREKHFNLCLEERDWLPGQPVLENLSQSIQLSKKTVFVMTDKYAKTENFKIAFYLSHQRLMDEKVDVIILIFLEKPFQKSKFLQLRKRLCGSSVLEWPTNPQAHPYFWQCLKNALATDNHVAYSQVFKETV
# Experiment: Antagonist screen, hTLR7-NFκB-293 cells, NF-κB-luciferase reporter, with EC50 of R848
# Format: cell-based
# Conditions: compound at 0.5, 5, 50 μg/ml; EC50 concentration of R848; 16 h; NF-κB-luciferase
# Method: The method is described in greater detail as follows. The cells for each individual cell clone (hTLR3-NFκB-293, hTLR7-NFκB-293, hTLR8-NFκB-293 and hTLR9-NFκB-293) were counted and seeded one day before the stimulation at 1.5×10^4 cells per well in 96-well cell culture plates. To become adherent the cells were incubated after seeding overnight at 37° C. in 5% CO2 humidified air.
# The screen for each compound was performed at the same time for all of the receptors TLR3, TLR7, TLR8 and TLR9. Up to fifteen test compounds, each assayed in duplicate at each of three different final concentrations (0.5 μg/ml, 5 μg/ml, and 50 μg/ml), were used for 16 h cell stimulation on a single multiwell culture plate. A 4× final concentration master plate was created to prepare the different test compounds before they were added to the cells.
# Controls were added as duplicates individually for each cell clone on the cell culture plate. Positive controls were used as follows (final concentrations): 50 μg/ml poly(I:C) for hTLR3-NFκB-293; 8 μM resiquimod (R848) for hTLR7-NFκB-293; 30 μM R848 for hTLR8-NFκB-293; and 2.5 μM CpG-ODN 2006 for hTLR9-NFκB-293. Media alone was used as negative control. After addition of controls and small molecules, the cell clones were additionally stimulated with the EC50 concentration of the appropriate receptor-specific ligand.
# The mean value of wells H2 and H5 (each with cells and EC50 concentration of the appropriate receptor-specific ligand) divided by the mean of wells H3 and H6 (each with cells alone) yielded the baseline response (i.e., fold induction of luciferase activity) to EC50 concentration of the appropriate receptor-specific ligand.
# After 16 h stimulation the supernatant was removed and the cells treated with lysis buffer and stored at −80° C. before measuring.
# For each screen result a graphical documentation was performed.
# The baseline result (measured with addition of the EC50 concentration of the receptor-specific ligand) for each cell culture plate was measured as described above. Antagonistic effects were measured by down regulation compared to the baseline. Antagonists were scored as follows: • 13: compounds for which there was clear down regulation at 0.5 μg/ml, 5 μg/ml, and 50 μg/ml; • 12: compounds for which there was clear down regulation at 5 μg/ml and 50 μg/ml; • 11: compounds for which there was clear down regulation only at 50 μg/ml; • —: compounds for which there was no clear down regulation even at 50 μg/ml. Agonists
# Results were expressed as fold induction over baseline luciferase activity measured in the absence of R848. […] Additional screening was performed in like manner using additional small molecules selected from another library or specifically prepared for this purpose. Scoring is reported as above but as applied to TLR7.
row,Compound,"hTLR7 (inhibitory effect, antagonist score)"
1,"c1ccc2c(c1)[nH]c1cnccc12 [compound 470, norharman]",11 (compounds for which there was clear down regulation only at 50 μg/ml)
2,"COC(=O)[C@H]1[C@H]2C[C@@H]3c4[nH]c5cc(OC)ccc5c4CCN3C[C@H]2C[C@@H](OC(=O)/C=C/c2cc(OC)c(OC)c(OC)c2)[C@@H]1OC [compound 568, Rescinnamin]",— (compounds for which there was no clear down regulation even at 50 μg/ml)
3,"OC(c1ccccc1)(c1ccccc1)C1CCNCC1 [compound 93, Azacyclonol]",— (compounds for which there was no clear down regulation even at 50 μg/ml)
4,"Clc1ccc(C(c2ccccc2Cl)C(Cl)Cl)cc1 (stereo not shown) [compound 833, Mitotane]",11 (compounds for which there was clear down regulation only at 50 μg/ml)
5,"CN(C)CCCN1c2ccccc2Sc2ccc(C(F)(F)F)cc21.Cl [compound 53, Triflupromazinehydrochloride]",11 (compounds for which there was clear down regulation only at 50 μg/ml)
6,"Cc1nccc2c1[nH]c1cc(O)ccc12.Cl [compound 612, Harmol hydrochloride monohydrate]",11 (compounds for which there was clear down regulation only at 50 μg/ml)
7,O=C(O)c1cccc2c1-c1ccccc1/C2=N/Nc1ccc([N+](=O)[O-])cc1[N+](=O)[O-] [compound 944],11 (compounds for which there was clear down regulation only at 50 μg/ml)
8,"Nc1cccc2c1C(=O)c1cccc(N)c1C2=O [compound 413, Anthraquinone,1,5-diamino]",— (compounds for which there was no clear down regulation even at 50 μg/ml)
9,"CCCC(C(=O)OCCN(CC)CC)(c1ccccc1)c1ccccc1.Cl [compound 778, Proadifen hydrochloride]",11 (compounds for which there was clear down regulation only at 50 μg/ml)
10,"Cl.Cl.Fc1ccc(C(OCCN2CCN(CCCc3ccccc3)CC2)c2ccc(F)cc2)cc1 [compound 386, GBR 12909hydrochloride]",11 (compounds for which there was clear down regulation only at 50 μg/ml)
11,"C[N+]12CCC(CC1)C(OC(=O)C(O)(c1ccccc1)c1ccccc1)C2.[Br-] (stereo not shown) [compound 822, Clidinium bromide]",— (compounds for which there was no clear down regulation even at 50 μg/ml)
12,"CN(C)CCCN1c2ccccc2Sc2ccccc21.Cl [compound 693, Promazinehydrochloride]",12 (compounds for which there was clear down regulation at 5 μg/ml and 50 μg/ml)
13,"CC(CN(C)C)CN1c2ccccc2Sc2ccccc21.CC(CN(C)C)CN1c2ccccc2Sc2ccccc21.O=C(O)C(O)C(O)C(=O)O (stereo not shown) [compound 842, Trimeprazine tartrate]",— (compounds for which there was no clear down regulation even at 50 μg/ml)
14,"COc1ccc2c(c1)[nH]c1c(C)nccc12.Cl [compound 613, harmine hydrochloride]","13 (compounds for which there was clear down regulation at 0.5 μg/ml, 5 μg/ml, and 50 μg/ml)"
15,O=C1c2ccccc2C(=O)c2c1ccc1c(=O)n(-c3ccccc3)[nH]c21 [compound 1042],12 (compounds for which there was clear down regulation at 5 μg/ml and 50 μg/ml)
16,O=C(O)c1ccccc1NC1CC=CC2=C1C(=O)c1ccccc1C2=O (stereo not shown) [compound 917],11 (compounds for which there was clear down regulation only at 50 μg/ml)

row,Compound,"hTLR7 (inhibitory effect, antagonist score)"
1,Metixene hydrochloride [compound 491],11 (compounds for which there was clear down regulation only at 50 μg/ml)
2,"CC(=O)c1ccc2c(c1)N(CCCN(C)C)c1ccccc1S2.O=C(O)/C=C\C(=O)O [compound 576, Acetopromazinemaleate salt]",— (compounds for which there was no clear down regulation even at 50 μg/ml)
3,"CN(C)CC/C=C1/c2ccccc2Sc2ccc(Cl)cc21.Cl [compound 348, Chlorprothixenehydrochloride]",11 (compounds for which there was clear down regulation only at 50 μg/ml)
4,"Cl.Clc1ccc(C(OCCN2CCCCC2)c2ccccc2)cc1 (stereo not shown) [compound 793, Cloperastinehydrochloride]",11 (compounds for which there was clear down regulation only at 50 μg/ml)
5,"CCN(CC)C(C)CN1c2ccccc2Sc2ccccc21.Cl (stereo not shown) [compound 840, Ethopropazinehydrochloride]",— (compounds for which there was no clear down regulation even at 50 μg/ml)
6,COC(=O)c1ccc(C2CC(=O)Nc3c2ccc2ccccc32)cc1 (stereo not shown) [compound 965],12 (compounds for which there was clear down regulation at 5 μg/ml and 50 μg/ml)
7,"CN(C)CC/C=C1/c2ccccc2CSc2ccccc21.Cl [compound 488, Dosulepin hydrochloride]",— (compounds for which there was no clear down regulation even at 50 μg/ml)
8,"COc1ccc2c(c1)N(CC(C)CN(C)C)c1ccccc1S2.O=C(O)/C=C\C(=O)O (stereo not shown) [compound 797, Methotrimeprazinemaleat salt]",— (compounds for which there was no clear down regulation even at 50 μg/ml)
9,O=C(O)c1cc(C(c2ccc(O)c(C(=O)O)c2)C(Cl)(Cl)Cl)ccc1O [compound 884],11 (compounds for which there was clear down regulation only at 50 μg/ml)
10,"C[C@]12N[C@H](Cc3ccccc31)c1ccccc12.O=C(O)/C=C\C(=O)O [compound 109, Dizocilpine maleate]",— (compounds for which there was no clear down regulation even at 50 μg/ml)
11,"Cc1c2ccncc2c(C)c2c1[nH]c1ccccc12 [compound 614, Ellipticine]","13 (compounds for which there was clear down regulation at 0.5 μg/ml, 5 μg/ml, and 50 μg/ml)"
12,"O=c1[nH]c2ccccc2n1C1CCN(CCCC(c2ccc(F)cc2)c2ccc(F)cc2)CC1 [compound 308, Pimozide]",11 (compounds for which there was clear down regulation only at 50 μg/ml)
13,"CN1CCC(OC(c2ccccc2)c2ccccc2)CC1.Cl [compound 707, Diphenylpyralinehydrochloride]",11 (compounds for which there was clear down regulation only at 50 μg/ml)
14,"COc1ccc2[nH]c3c(c2c1)CCN=C3C [compound 621, Methoxy-6-harmalan]",— (compounds for which there was no clear down regulation even at 50 μg/ml)
15,"Cc1cccc(C)c1NC(=O)CN1CCN(CCCC(c2ccc(F)cc2)c2ccc(F)cc2)CC1 [compound 381, Lidoflazine]",11 (compounds for which there was clear down regulation only at 50 μg/ml)
